One series relates to heart. Conditions: literature; result in words; cited from earlier work.
The test system of series [1] is guinea pig papillary muscle. The series can be described thus: Contractive force of extirpated guinea pig papillary muscle preparation (Test Example 1). Conditions: Cavia porcellus; 10^-3 M; relative to 10^-7 M Isoproterenol (positive control) as 100%; read-out: Increase in contractive force. On the procedure: Test animal: guinea-pigs Method of Experiment: extirpated guinea pig papillary muscle preparation. Male albino guinea pigs having body weights of 300 to 500 g were stunned by a blow on the head. The hearts were quickly extirpated and the papillary muscles of the right ventricle were dissected out in cold bathing solution (2° to 4° C.), and were suspended in a 10 ml organ bath for recording isometric contractions. The bathing solution was the Krebs-Henseleit solution (32°±0.5° C.) and was continuously bubbled with a mixed gas composed of 95% O2 and 5% CO2. The papillary muscle preparation were stimulated by square wave pulses of 1 msec duration at the frequency of 1 Hz and at voltages of 20% above the threshold supplied by a square-wave pulse stimulator via a pair of the silver plate electrodes in which the preparations were placed. The isometric contraction was measured by a force-displacement transducer connected to a carrier-amplifier. The test solution was prepared by dissolving the sodium salt into distilled water or dissolving the free acid into Krebs-Henseleit solution. […] The results are shown as relative values (%), taking the result given by a reaction using 10^-7 M Isoproterenol (positive control) as 100%.

Series [2] is described as follows: Acute toxicity, intraperitoneal (Test Example 3). Conditions: mouse, in vivo, ip, female mice, in dimethyl sulfoxide, observed for 7 days. On the procedure: Test animal: female ICR-CRJ: CD-1 mice, 5 weeks old, body weight 29 to 32 g
LD50 was calculated according to the Richfield-Wilcockson method (Pharmacological Tests, p 200-205, Nanzando, 1967).

Another series has as its system heart-lung preparation. The series can be described thus: Cardiotonic activity on heart-lung preparation, acute heart failure induced by Pentobarbital (Test Example 2). Also noted: species or system dog. Conditions: for Change in Heart rate / Decrease in right atrium pressure / Increase in systemic output: versus nonadministration group. On the procedure:
Test animal: Crossbred adult dogs (female and male) Method of Experiment: cardiotonic activity on heart-lung preparation. Using female and male crossbred dogs having body weights of 9 to 10 kg anesthetized with Pentobarbital, heart-lung preparations were prepared in the usual way, on which systemic output, right atrium pressure and heart rate were measured. […] Regarding the control (no administration group), the results express the values after administration of Pentobarbital.

Usually LD50 stands for the dose expected to kill half of the subjects tested.

Molecules are shown by their SMILES. Where a name gives a salt, the structure may show the parent alone.

Regarding `CCCC(=O)Nc1ncnc2c1ncn2[C@@H]1O[C@@H]2COP(=O)(O)O[C@H]2[C@H]1OC(=O)CCC` [N^6,2'-O-dibutyryl C-AMP], the myocardial contractility entry in the series on heart is “have a mycocardial contractile effect”.

For the compound `CCCCCNc1ncnc2c1ncn2[C@@H]1O[C@@H]2COP(=O)(O)O[C@H]2[C@H]1O` [N^6 --Pentyl-C--AMP], the activation at 1000 µM in series [1] was 98%.

As for `CCCCCCCNc1ncnc2c1ncn2[C@@H]1O[C@@H]2COP(=O)(O)O[C@H]2[C@H]1O` [N^6 --Heptyl-C--AMP, N^6-heptyladenosine-3',5'-cyclic phosphate], the activation at 1000 µM in series [1] turned out to be 94.1%. This compound displayed an LD50 at 168 h in series [2] of 174 mg/kg. Besides, in the series on heart-lung preparation (10 mg or 30 mg, result in words), the “acute heart failure state induced by Pentobarbital” value is recorded as “remarkably improved”.

For the compound `CC(C)CNc1ncnc2c1ncn2[C@@H]1O[C@@H]2COP(=O)(O)O[C@H]2[C@H]1O` [N^6 --Isobutyl-C--AMP], the activation at 1000 µM in series [1] was found to be 24%.

With `O=P1(O)OC[C@H]2O[C@@H](n3cnc4c(NCc5ccccc5)ncnc43)[C@H](O)[C@@H]2O1` [N^6 --Benzyl-C--AMP Na], the activation at 1000 µM in series [1] amounted to 91.7%. Also, the LD50 at 168 h in series [2] was 383 mg/kg.

On to `O=P1(O)OC[C@H]2O[C@@H](n3cnc4c(NCc5ccco5)ncnc43)[C@H](O)[C@@H]2O1` [N^6 --Furfuryl-C--AMP Na], for which the activation at 1000 µM in series [1] is 93.2%. The LD50 at 168 h in series [2] was found to be 483 mg/kg.

For the compound `CCCCCCCCCNc1ncnc2c1ncn2[C@@H]1O[C@@H]2COP(=O)(O)O[C@H]2[C@H]1O` [N^6 --Nonyl-C--AMP Na], the activation at 1000 µM in series [1] worked out at 49.5%. In series [2], this compound had an LD50 at 168 h of 150 mg/kg.

For the compound `CCCCNc1ncnc2c1ncn2[C@@H]1O[C@@H]2COP(=O)(O)O[C@H]2[C@H]1O` [N^6 --Butyl-C--AMP], the activation at 1000 µM in series [1] was 71%. In series [2], the LD50 at 168 h turned out to be 350 mg/kg.

As to `CCCCCCCNc1ncnc2c1ncn2[C@@H]1O[C@@H]2COP(=O)(O)O[C@H]2[C@H]1O` [sodium salt of N^6-heptyl-adenosine-3',5'-cyclic phosphate], in the series with heart-lung preparation (10 mg), the Heart rate came to 112 beats/min, the Right atrium pressure was determined as 96.9 mm H2 O, the Systemic output amounted to 409 ml/min./100 g heart and the “Change in Heart rate” value came to 2 beats/min. In the series with heart-lung preparation (10 mg), the “Decrease in right atrium pressure” value worked out at 12.1 mm H2 O and the “Increase in systemic output” value is given as 150 ml/min./100 g heart. For the same compound, in the series with heart-lung preparation (30 mg), the Heart rate was found to be 120 beats/min, the Right atrium pressure came to 68.3 mm H2 O, the Systemic output turned out to be 610 ml/min./100 g heart and the “Change in Heart rate” value is 10 beats/min. Besides, in the series with heart-lung preparation (30 mg), the “Decrease in right atrium pressure” value came out at 40.7 mm H2 O and the “Increase in systemic output” value is 351 ml/min./100 g heart.
